From patent publication US10787452B2 (Vertex Pharmaceuticals Incorporated, priority 2012, dated 2020)

Tested on: HCT116 colorectal cancer cells
Assay: Cisplatin sensitization assay (96 h cell viability MTS);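 note: compound concentration needed to lower the Cisplatin-alone IC50 by a set fold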
Format: cell-based
Details: 96 h MTS, compound plus Cisplatin
How it was run: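 Full-matrix combination: compound × cisplatin, 2-fold dilutions from 10 μM top final, co-added; 96 h, 37° C, 5% CO2; MTS read-out after 1 h.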

Structure (SMILES)	Cisplatin Sensitization Assay
CN(C)[C@H]1CCN(c2ccncc2NC(=O)c2c(N)nn3cc(Cl)cnc23)C[C@@H]1O [I-N-35, 2-amino-6-chloro-N-(4-((3S,4S)-4-(dimethylamino)-3-hydroxypiperidin-1-yl)pyridin-3-yl)pyrazolo[1,5-a]pyrimidine-3-carboxamide]	+ (Compounds with a Cisplatin sensitization value >0.2 μM but <5 μM are marked with “+.”)
CN(C)CC1(O)CCN(c2ccncc2NC(=O)c2c(N)nn3cc(Cl)cnc23)CC1 [I-N-36, 2-amino-6-chloro-N-(4-(4-((dimethylamino)methyl)-4-hydroxypiperidin-1-yl)pyridin-3-yl)pyrazolo[1,5-a]pyrimidine-3-carboxamide]	++ (Compounds with a Cisplatin sensitization value >0.02 μM but <0.2 μM are marked with “++.”)
CN(C)C1CCN(c2ccncc2NC(=O)c2c(N)nn3cc(Cl)cnc23)CC1 [I-N-37, 2-amino-6-chloro-N-(4-(4-(dimethylamino)piperidin-1-yl)pyridin-3-yl)pyrazolo[1,5-a]pyrimidine-3-carboxamide]	++ (Compounds with a Cisplatin sensitization value >0.02 μM but <0.2 μM are marked with “++.”)
Nc1nn2cc(F)cnc2c1C(=O)Nc1cncc(Cl)c1N1CCN2CCN(C3COC3)CC2C1 (centres unmarked) [I-N-38, 2-amino-N-(5-chloro-4-(8-(oxetan-3-yl)hexahydro-1H-pyrazino[1,2-a]pyrazin-2(6H)-yl)pyridin-3-yl)-6-fluoropyrazolo[1,5-a]pyrimidine-3-carboxamide]	++ (Compounds with a Cisplatin sensitization value >0.02 μM but <0.2 μM are marked with “++.”)
CC(C)N1CCN(c2ccncc2NC(=O)c2c(N)nn3cc(Cl)cnc23)CC1 [I-N-39, 2-amino-6-chloro-N-(4-(4-isopropylpiperazin-1-yl)pyridin-3-yl)pyrazolo[1,5-a]pyrimidine-3-carboxamide]	++ (Compounds with a Cisplatin sensitization value >0.02 μM but <0.2 μM are marked with “++.”)
CN(C)C1CCCN(c2ccncc2NC(=O)c2c(N)nn3cc(Cl)cnc23)C1 (centres unmarked) [I-N-40, 2-amino-6-chloro-N-(4-(3-(dimethylamino)piperidin-1-yl)pyridin-3-yl)pyrazolo[1,5-a]pyrimidine-3-carboxamide]	++ (Compounds with a Cisplatin sensitization value >0.02 μM but <0.2 μM are marked with “++.”)
CN1CCN(c2c(Cl)cncc2NC(=O)c2c(N)nn3cc(Cl)cnc23)CC1 [I-N-41, 2-amino-6-chloro-N-(5-chloro-4-(4-methylpiperazin-1-yl)pyridin-3-yl)pyrazolo[1,5-a]pyrimidine-3-carboxamide]	+++ (Compounds with a Cisplatin sensitization value of <0.02 μM are marked with “+++.”)
CN1CCCN(c2ccncc2NC(=O)c2c(N)nn3cc(Cl)cnc23)CC1 [I-N-43, 2-amino-6-chloro-N-(4-(4-methyl-1,4-diazepan-1-yl)pyridin-3-yl)pyrazolo[1,5-a]pyrimidine-3-carboxamide]	++ (Compounds with a Cisplatin sensitization value >0.02 μM but <0.2 μM are marked with “++.”)
Nc1nn2cc(Cl)cnc2c1C(=O)Nc1cnccc1N1CCn2ccnc2C1 [I-N-44, 2-amino-6-chloro-N-(4-(5,6-dihydroimidazo[1,2-a]pyrazin-7(8H)-yl)pyridin-3-yl)pyrazolo[1,5-a]pyrimidine-3-carboxamide]	++ (Compounds with a Cisplatin sensitization value >0.02 μM but <0.2 μM are marked with “++.”)
CN(C)CC1CCN(c2ccncc2NC(=O)c2c(N)nn3cc(Cl)cnc23)CC1 [I-N-45, 2-amino-6-chloro-N-(4-(4-((dimethylamino)methyl)piperidin-1-yl)pyridin-3-yl)pyrazolo[1,5-a]pyrimidine-3-carboxamide]	++ (Compounds with a Cisplatin sensitization value >0.02 μM but <0.2 μM are marked with “++.”)
COC1(CN(C)C)CCN(c2ccncc2NC(=O)c2c(N)nn3cc(Cl)cnc23)CC1 [I-N-46, 2-amino-6-chloro-N-(4-(4-((dimethylamino)methyl)-4-methoxypiperidin-1-yl)pyridin-3-yl)pyrazolo[1,5-a]pyrimidine-3-carboxamide]	+++ (Compounds with a Cisplatin sensitization value of <0.02 μM are marked with “+++.”)
COCC1CN(c2ccncc2NC(=O)c2c(N)nn3cc(Cl)cnc23)CCN1C (centres unmarked) [I-N-47, 2-amino-6-chloro-N-(4-(3-(methoxymethyl)-4-methylpiperazin-1-yl)pyridin-3-yl)pyrazolo[1,5-a]pyrimidine-3-carboxamide]	++ (Compounds with a Cisplatin sensitization value >0.02 μM but <0.2 μM are marked with “++.”)
Nc1nn2cc(Cl)cnc2c1C(=O)Nc1cnccc1N1CCN(C2CCC2)CC1 [I-N-48, 2-amino-6-chloro-N-(4-(4-cyclobutylpiperazin-1-yl)pyridin-3-yl)pyrazolo[1,5-a]pyrimidine-3-carboxamide]	++ (Compounds with a Cisplatin sensitization value >0.02 μM but <0.2 μM are marked with “++.”)
CN(C)CCN1CCN(c2ccncc2NC(=O)c2c(N)nn3cc(Cl)cnc23)CC1 [I-N-49, 2-amino-6-chloro-N-(4-(4-(2-(dimethylamino)ethyl)piperazin-1-yl)pyridin-3-yl)pyrazolo[1,5-a]pyrimidine-3-carboxamide]	+++ (Compounds with a Cisplatin sensitization value of <0.02 μM are marked with “+++.”)
CN1CCN(c2cc(N)ncc2NC(=O)c2c(N)nn3cc(Cl)cnc23)CC1 [I-N-50, 2-amino-N-(6-amino-4-(4-methylpiperazin-1-yl)pyridin-3-yl)-6-chloropyrazolo[1,5-a]pyrimidine-3-carboxamide]	+ (Compounds with a Cisplatin sensitization value >0.2 μM but <5 μM are marked with “+.”)
CN1CCN(c2cc(Cl)ncc2NC(=O)c2c(N)nn3cc(Cl)cnc23)CC1 [I-N-52, 2-amino-6-chloro-N-(6-chloro-4-(4-methylpiperazin-1-yl)pyridin-3-yl)pyrazolo[1,5-a]pyrimidine-3-carboxamide]	++ (Compounds with a Cisplatin sensitization value >0.02 μM but <0.2 μM are marked with “++.”)
CN1CCN(c2ccncc2NC(=O)c2c(N)nn3cc(Cl)cnc23)CC1(C)C [I-N-53, 2-amino-6-chloro-N-(4-(3,3,4-trimethylpiperazin-1-yl)pyridin-3-yl)pyrazolo[1,5-a]pyrimidine-3-carboxamide]	++ (Compounds with a Cisplatin sensitization value >0.02 μM but <0.2 μM are marked with “++.”)
CC1CN(c2ccncc2NC(=O)c2c(N)nn3cc(Cl)cnc23)CCN1C (centres unmarked) [I-N-54, 2-amino-6-chloro-N-(4-(3,4-dimethylpiperazin-1-yl)pyridin-3-yl)pyrazolo[1,5-a]pyrimidine-3-carboxamide]	+++ (Compounds with a Cisplatin sensitization value of <0.02 μM are marked with “+++.”)
Nc1nn2cc(Cl)cnc2c1C(=O)Nc1cnccc1N1CCCC(N)C1 (centres unmarked) [I-N-55, 2-amino-N-(4-(3-aminopiperidin-1-yl)pyridin-3-yl)-6-chloropyrazolo[1,5-a]pyrimidine-3-carboxamide]	++ (Compounds with a Cisplatin sensitization value >0.02 μM but <0.2 μM are marked with “++.”)
Nc1nn2cc(Cl)cnc2c1C(=O)Nc1cnccc1N1CCN2CCC1CC2 [I-N-56, N-(4-(1,4-diazabicyclo[3.2.2]nonan-4-yl)pyridin-3-yl)-2-amino-6-chloropyrazolo[1,5-a]pyrimidine-3-carboxamide]	++ (Compounds with a Cisplatin sensitization value >0.02 μM but <0.2 μM are marked with “++.”)
